Read-outs that look alike come from different tables or passages of the source.
Columns and labels:
[1] = molecular target: GDP-bound KRAS wild-type protein (Homo sapiens, UniProt P01116); test: Binding to KRAS by surface plasmon resonance (SPR), Single Cycle Kinetics; conditions: SPR, Single Cycle Kinetics, GDP-bound KRAS wild-type protein, read-out: KRAS KD
[2] = system: human lung cancer strain NCI-H441;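 further: cell proliferation inhibition after four days measured by CellTiter-Glo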
[3] = molecular target: GDP-bound HRAS wild-type protein (Homo sapiens, UniProt P01112); test: Binding to HRAS by surface plasmon resonance (SPR), Single Cycle Kinetics; conditions: SPR; for HRAS/KRAS (ratio of KD value for HRAS to KD value for KRAS): GDP-bound HRAS wild-type protein vs GDP-bound KRAS wild-type protein
[4] = molecular target: GDP-bound NRAS wild-type protein (Homo sapiens, UniProt P01111); test: Binding to NRAS by surface plasmon resonance (SPR), Single Cycle Kinetics; conditions: SPR; for NRAS/KRAS (ratio of KD value for NRAS to KD value for KRAS): GDP-bound NRAS wild-type protein vs GDP-bound KRAS wild-type protein
[5] = read-out: NCI-H441 cell proliferation inhibitory activity, 50% proliferation inhibitory concentration (IC50 value), NCI-H441, four days, CellTiter-Glo

GDP-bound NRAS wild-type protein, sequence (P01111 whole entry): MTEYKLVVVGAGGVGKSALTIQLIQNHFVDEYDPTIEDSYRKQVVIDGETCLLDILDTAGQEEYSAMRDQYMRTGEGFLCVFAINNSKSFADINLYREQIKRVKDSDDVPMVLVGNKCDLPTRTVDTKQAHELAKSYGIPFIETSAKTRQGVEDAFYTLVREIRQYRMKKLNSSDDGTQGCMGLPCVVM
GDP-bound HRAS wild-type protein, sequence (P01112 whole entry): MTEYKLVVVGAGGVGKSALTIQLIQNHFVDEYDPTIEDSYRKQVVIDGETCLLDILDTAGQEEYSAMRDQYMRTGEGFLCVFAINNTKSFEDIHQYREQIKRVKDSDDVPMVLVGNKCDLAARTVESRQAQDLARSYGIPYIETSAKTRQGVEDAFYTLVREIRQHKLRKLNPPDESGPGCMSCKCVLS
GDP-bound KRAS wild-type protein, sequence (P01116 whole entry): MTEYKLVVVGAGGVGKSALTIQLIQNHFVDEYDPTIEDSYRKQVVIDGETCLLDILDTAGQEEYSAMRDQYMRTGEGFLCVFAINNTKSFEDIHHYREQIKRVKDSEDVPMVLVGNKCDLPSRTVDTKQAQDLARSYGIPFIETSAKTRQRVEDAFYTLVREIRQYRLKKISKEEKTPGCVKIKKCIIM

| SMILES | Kd ([1]; 1:1 binding model) [nM] | IC50 [2] [nM] | Kd [1] [nM] | IC50 [2, 5] [nM] | HRAS/KRAS (ratio of KD value for HRAS to KD value for KRAS) ([3]; KD ratio class) | NRAS/KRAS (ratio of KD value for NRAS to KD value for KRAS) ([4]; KD ratio class) | HRAS/KRAS (ratio of KD value for HRAS to KD value for KRAS) [3] | NRAS/KRAS (ratio of KD value for NRAS to KD value for KRAS) [4] | ratio of the KD value with respect to GDP-bound HRAS wild-type protein to the KD value with respect to KRAS [3] | ratio of the KD value with respect to GDP-bound NRAS wild-type protein to the KD value with respect to KRAS [4] |
| --- | --- | --- | --- | --- | --- | --- | --- | --- | --- | --- |
| CCO[C@@H]1C[C@H]2C(=O)NC3(CCC3)C(=O)N(C)[C@@H](C3CCCC3)C(=O)N(C)[C@H](C(=O)N(C)C)CC(=O)N(C)[C@@H](CC)C(=O)N[C@@H]([C@@H](C)CC)C(=O)N(C)CC(=O)N(C)[C@H]3C/C=C\CCN(C3=O)[C@@H](CC3CCC(F)(F)CC3)C(=O)N(C)CC(=O)N[C@@H](CCc3cc(F)c(C(F)(F)F)c(F)c3)C(=O)N2C1 [PP1452, (2S,8S,12R,14S,20S,23S,27S,30S,36S,38Z)-20-cyclopentyl-2-[(4,4-difluorocyclohexyl)methyl]-8-[2-[3,5-difluoro-4-(trifluoromethyl)phenyl]ethyl]-12-ethoxy-27-ethyl-N,N,4,19,22,26,32,35-octamethyl-30-[(1S)-1-methylpropyl]-3,6,9,15,18,21,25,28,31,34,42-undecaoxo-spiro[1,4,7,10,16,19,22,26,29,32,35-undecazatricyclo[34.5.1.0^10,14]dotetracont-38-ene-17,1′-cyclobutane]-23-carboxamide] | 0.13 | 30.5 |  |  | A (a compound having 10 or more and less than 20 is denoted as A) | A (a compound having 10 or more and less than 20 is denoted as A) |  |  |  |  |
| CCO[C@@H]1C[C@H]2C(=O)NC3(CCC3)C(=O)N(C)[C@@H](C3CCCC3)C(=O)N(C)[C@H](C(=O)N3CCCC3)CC(=O)N(C)[C@@H](CC(F)F)C(=O)N[C@@H]([C@@H](C)CC)C(=O)N(C)CC(=O)N(C)[C@H]3C/C=C\CCN(C3=O)[C@@H](Cc3ccc(C(F)(F)F)cc3)C(=O)N(C)CC(=O)N[C@@H](CCc3cc(F)c(C(F)(F)F)c(F)c3)C(=O)N2C1 [PP1298] | 0.13 | 11.4 |  |  | A (a compound having 10 or more and less than 20 is denoted as A) | AA (a compound having 20 or more is denoted as AA) |  |  |  |  |
| CCO[C@@H]1C[C@H]2C(=O)NC3(CCC3)C(=O)N(C)[C@@H](C3CCCC3)C(=O)N(C)[C@H](C(=O)N(C)C)CC(=O)N(C)[C@@H](CC3CCCC3)C(=O)N[C@@H]([C@@H](C)CC)C(=O)N(C)CC(=O)N(C)[C@H]3C/C=C\CCN(C3=O)[C@@H](CC3CCC(F)(F)CC3)C(=O)N(C)CC(=O)N[C@@H](CCc3cc(F)c(C(F)(F)F)c(F)c3)C(=O)N2C1 [PP1458] | 0.15 | 18.2 |  |  | A (a compound having 10 or more and less than 20 is denoted as A) | A (a compound having 10 or more and less than 20 is denoted as A) |  |  |  |  |
| CCO[C@@H]1C[C@H]2C(=O)NC3(CCC3)C(=O)N(C)[C@@H](C(CC)CC)C(=O)N(C)[C@H](C(=O)N(C)C)CC(=O)N(C)[C@@H](CC3CC3)C(=O)N[C@@H]([C@@H](C)CC)C(=O)N(C)CC(=O)N(C)[C@H]3C/C=C\CCN(C3=O)[C@@H](Cc3ccc(C(F)(F)F)cc3)C(=O)N(C)CC(=O)N[C@@H](CCc3cc(F)c(C(F)(F)F)c(F)c3)C(=O)N2C1 [PP1203] | 0.23 | 20.8 |  |  | A (a compound having 10 or more and less than 20 is denoted as A) | A (a compound having 10 or more and less than 20 is denoted as A) |  |  |  |  |
| CCCO[C@H](C)[C@@H]1NC(=O)[C@H](CC(C)C)N(C)C(=O)C[C@@H](C(=O)N(C)C)N(C)C(=O)[C@H](C2CCCC2)N(C)C(=O)C2(CC(C)(C)C2)NC(=O)[C@@H]2C[C@H](C)CN2C(=O)[C@H](CCc2ccc(C(F)(F)F)c(OC)c2)NC(=O)CN(C)C(=O)[C@H](Cc2ccc(C)cc2)N2CC/C=C\C[C@@H](C2=O)N(C)C(=O)CN(C)C1=O [PP2415] |  | 10.3 | 0.093 |  |  |  | A (a compound having 10 or more and less than 20 is denoted as A) | AA (a compound having 20 or more is denoted as AA) |  |  |
| CCO[C@@H]1C[C@H]2C(=O)NC3(CCC3)C(=O)N(C)[C@@H](C3CCCC3)C(=O)N(C)[C@H](C(=O)N3CCOCC3)CC(=O)N(C)[C@@H](CC3CCCCC3)C(=O)N[C@@H]([C@@H](C)CC)C(=O)N(C)CC(=O)N(C)[C@H]3C/C=C\CCN(C3=O)[C@@H](Cc3ccc(C)cc3)C(=O)N(C)CC(=O)N[C@@H](CCc3cc(F)c(C(F)(F)F)c(F)c3)C(=O)N2C1 [PP1420] | 0.35 | 31.4 |  |  | A (a compound having 10 or more and less than 20 is denoted as A) | A (a compound having 10 or more and less than 20 is denoted as A) |  |  |  |  |
| CCO[C@@H]1C[C@H]2C(=O)NC3(CCC3)C(=O)N(C)[C@@H](C3CCCC3)C(=O)N(C)[C@H](C(=O)N3CCOCC3)CC(=O)N(C)[C@@H](CC(C)C)C(=O)N[C@@H]([C@@H](C)CC)C(=O)N(C)CC(=O)N(C)[C@H]3C/C=C\CCN(C3=O)[C@@H](Cc3ccc(C)cc3)C(=O)N(C)CC(=O)N[C@@H](CCc3cc(F)c(C(F)(F)F)c(F)c3)C(=O)N2C1 [PP1415] | 0.25 | 9.5 |  |  | A (a compound having 10 or more and less than 20 is denoted as A) | A (a compound having 10 or more and less than 20 is denoted as A) |  |  |  |  |
| CCO[C@@H]1C[C@H]2C(=O)NC3(CCC3)C(=O)N(C)[C@@H](C3CCCC3)C(=O)N(C)[C@H](C(=O)N(C)C)CC(=O)N(C)[C@@H](Cc3ccc(C#N)cc3)C(=O)N[C@@H]([C@@H](C)CC)C(=O)N(C)CC(=O)N(C)[C@H]3CCCCCN(C3=O)[C@@H](Cc3ccc(C(F)(F)F)cc3)C(=O)N(C)CC(=O)N[C@@H](CCc3cc(F)c(C(F)(F)F)c(F)c3)C(=O)N2C1 [PP1173] |  | 70.8 | 0.18 |  |  |  | B (a compound having 3 or more and less than 10 is denoted as B) | B (a compound having 3 or more and less than 10 is denoted as B) |  |  |

Continued, in another order:

| Kd ([1]; 1:1 binding model) [nM] | IC50 [2] [nM] | Kd [1] [nM] | IC50 [2, 5] [nM] | SMILES | HRAS/KRAS (ratio of KD value for HRAS to KD value for KRAS) ([3]; KD ratio class) | NRAS/KRAS (ratio of KD value for NRAS to KD value for KRAS) ([4]; KD ratio class) | HRAS/KRAS (ratio of KD value for HRAS to KD value for KRAS) [3] | NRAS/KRAS (ratio of KD value for NRAS to KD value for KRAS) [4] | ratio of the KD value with respect to GDP-bound HRAS wild-type protein to the KD value with respect to KRAS [3] | ratio of the KD value with respect to GDP-bound NRAS wild-type protein to the KD value with respect to KRAS [4] |
| --- | --- | --- | --- | --- | --- | --- | --- | --- | --- | --- |
| 0.33 | 54.3 |  |  | CCO[C@@H]1C[C@H]2C(=O)NC3(CCC3)C(=O)N(C)[C@@H](C3CCCC3)C(=O)N(C)[C@H](C(=O)N(C)C)CC(=O)N(C)[C@@H](CC(C)C)C(=O)N[C@@H]([C@@H](C)CC)C(=O)N(C)CC(=O)N(C)[C@H]3C/C=C\CCN(C3=O)[C@@H](Cc3ccc(C(F)(F)F)cc3)C(=O)N(C)CC(=O)N[C@@H](CCc3ccc4sccc4c3)C(=O)N2C1 [PP1257] | A (a compound having 10 or more and less than 20 is denoted as A) | A (a compound having 10 or more and less than 20 is denoted as A) |  |  |  |  |
|  | 11.7 | 0.14 |  | CCOC[C@H]1C(=O)N[C@@H]([C@@H](C)CC)C(=O)N(C)CC(=O)N(C)[C@H]2C/C=C\CCN(C2=O)[C@@H](Cc2ccc(C)cc2)C(=O)N(C)CC(=O)N[C@@H](CCc2ccc(C(F)(F)F)c(OC)c2)C(=O)N2C[C@H](OCC)C[C@H]2C(=O)NC2(CC(C)(C)C2)C(=O)N(C)[C@@H](C2CCCC2)C(=O)N(C)[C@H](C(=O)N(C)CC)CC(=O)N1C [PP2445] |  |  | B (a compound having 3 or more and less than 10 is denoted as B) | A (a compound having 10 or more and less than 20 is denoted as A) |  |  |
|  |  | 0.059 | 4.1 | CCO[C@@H]1C[C@H]2C(=O)NC3(CC(C)(C)C3)C(=O)N(C)[C@@H](C3CCCC3)C(=O)N(C)[C@H](C(=O)N(C)C)CC(=O)N(C)[C@H]3CCCCCc4ccc(cc4)C[C@@H](C(=O)N(C)CC(=O)N[C@@H](CCc4ccc(Cl)c(Cl)c4)C(=O)N2C1)N1CC/C=C\C[C@@H](C1=O)N(C)C(=O)CN(C)C(=O)[C@H]([C@@H](C)CC)NC3=O [PP3076] |  |  | A (a compound having 10 or more and less than 20 is denoted as A) | AA (a compound having 20 or more is denoted as AA) | A (a compound having 10 or more and less than 20 is denoted as A) | AA (a compound having 20 or more is denoted as AA) |
|  |  | 0.34 | 15.1 | CCCO[C@@H]1C[C@H]2C(=O)NC3(CC(C)(C)C3)C(=O)N(C)[C@@H](C3CCCC3)C(=O)N(C)[C@H](C(=O)N(C)CC)CC(=O)N(C)[C@H]3CCCc4ccc(cc4)C[C@@H](C(=O)N(C)CC(=O)N[C@@H](CCc4ccc(C(F)(F)F)c(OC)c4)C(=O)N2C1)N1CC/C=C\C[C@@H](C1=O)N(C)C(=O)CN(C1CC1)C(=O)[C@H]([C@@H](C)CC)NC3=O [PP3088] |  |  | B (a compound having 3 or more and less than 10 is denoted as B) | B (a compound having 3 or more and less than 10 is denoted as B) | B (a compound having 3 or more and less than 10 is denoted as B) | B (a compound having 3 or more and less than 10 is denoted as B) |
